The subject of test [1] is K. pneumoniae expressing the Class A carbapenemase KPC-2. Nature of the test: microbe, parasite or virus in culture. Particulars: in the presence of fixed 8 μg/mL Ceftazidime. The text has this:
(§1) To determine the ability of test compounds to potentiate the inhibition of the growth of bacterial strains producing beta-lactamase enzymes, classic cell based screening assays were employed. Four bacteria strains producing beta-lactamase enzymes were used: K. pneumoniae expressing the Class A Extended Spectrum Beta-Lactamase (ESBL) CTX-M-15, E. coli expressing the Class A ESBL SHV-5, E. cloacae expressing the Class C P99+, and K. pneumoniae expressing the Class A carbapenemase KPC-2. In order to evaluate the ability of test compounds to inhibit beta-lactamase activity, Applicants used a modification of the broth microdilution assay. The assay was conducted in Cation Adjusted Mueller Hinton Broth (CAMHB, BD # 212322, BD Diagnostic Systems, Sparks, Md.). Bacteria strains were grown for 3-5 hours in CAMBH broth. All four strains were grown in presence of 50 μg/mL ampicillin to ensure resistance is maintained. In the meantime, test compounds were diluted in DMSO to a 0.1 mg/mL stock. The compounds were added to a microtiter plate and were diluted in 2-fold serial dilutions in CAMHB in a final concentration range of 8 μg/mL to 0.015 μg/ml. An overlay of CAMHB containing a cephalosporin was added to the compounds at a final static concentration of 8 μg/ml. […] Each of these compound plates are made in quadruplicate, one for each bacteria strain. In addition to the titration of test compounds the MICs of a panel of cephalosporins is also tested to ensure the strains are behaving consistently from test to test. Once the test compound and cephalosporin are added the plates can be inoculated. Inocula are conducted according to CLSI broth microdilution method. After inoculation the plates are incubated for 16-20 hours at 37° C. then the Minimal Inhibitory Concentration (MIC) of the test compound is determined visually.

The next test deals with T1, Class A ESBL CTXM-15 (Escherichia coli, UniProt Q9EXV5).
T1 construct: made in house; host or cells: E. coli BL21(DE3)
T1 sequence (Q9EXV5 entry or part of it): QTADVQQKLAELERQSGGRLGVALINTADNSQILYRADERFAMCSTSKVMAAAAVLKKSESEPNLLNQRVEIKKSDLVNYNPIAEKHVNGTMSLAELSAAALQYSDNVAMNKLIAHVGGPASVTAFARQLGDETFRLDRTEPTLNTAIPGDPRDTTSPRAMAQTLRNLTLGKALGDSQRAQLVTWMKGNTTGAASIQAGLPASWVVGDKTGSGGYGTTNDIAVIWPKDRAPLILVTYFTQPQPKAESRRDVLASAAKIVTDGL
Nature of the test: β-lactamase enzyme inhibition (nitrocefin hydrolysis), CTXM-15. Format: biochemical. The settings on record: purified enzyme; nitrocefin 100 μM, PBS pH 7.0; read-out: CTXM-15 IC50 Range. The procedure:
(§2) Isolation of β-lactamases. For all examples, purified beta-lactamase enzymes were used to measure a compounds' ability to inhibit the Class A ESBL CTXM-15, the Class C P99 AmpC and the Class A carbapenemase KPC-2. […] The enzyme preparations are described herein.
(§3) For the isolation and purification of SHV-5, p99 AmpC, KPC-2 and CTX-M15 β-lactamases, E. coli BL21(DE3) bacterial cells carrying expression plasmids (expressed as native untagged proteins) for the individual β-lactamases were grown in 1 L of Superbroth (Teknova Inc. Hollister, Calif.) supplemented with 100 μg/ml kanamycin and 1×5052 (0.5% glycerol, 0.05% glucose and 0.2% α-lactose) at 35° C. for 18-20 hours. Cells were harvested by centrifugation (4,000×g, 4° C., 20 min), and resuspended in 50 ml of 10 mM HEPES pH 7.5 ( 1/20 of the initial volume). The cells were lysed by sonication (5 pulses of 45 seconds) at 45 W on ice. The lysates were clarified by centrifugation at 10,000×g for 40 minutes at 4° C. Samples were diluted 5-fold in 50 mM sodium acetate pH 5.0, stored overnight at 4° C., after which they were centrifuged at 10,000×g for 30 minutes to clarify, and filtered through 0.45 μm filters. The samples were loaded onto a 5 ml Capto S sepharose cation exchange column (GE Healthcare) pre-equilibrated with 50 mM sodium acetate pH 5.0. The column was washed with 5 column volumes of 50 mM sodium acetate pH 5.0 to wash out unbound protein and a linear gradient of NaCl (0 to 500 mM) was used to elute the protein (over 16 CV) from the column. Fractions were assayed for β-lactamase activity using Centa (Calbiochem, Gibbstown, N.J.) as a reporter β-lactamase substrate for activity in the isolated fractions. Active fractions were pooled, concentrated and further purified by gel filtration chromatography on a Superdex 75 prep grade gel filtration column (GE Healthcare, Piscataway, N.J.) pre-equilibrated in 50 mM Hepes pH 7.5, 150 mM NaCl. Active fractions were pooled concentrated, quantitated by BCA protein determination (Thermo Scientific, Rockford, Ill.), and frozen at −80° C. in 20% glycerol until use.
(§4) β-lactamase Inhibition. To determine the level of inhibition of β-lactamaseenzymes, compounds were diluted in PBS at pH 7.0 to yield concentrations between 100 and 0.005 μM in microtiter plates. An equal volume of diluted enzyme stock was added, and the plates were incubated at 37° C. for 10 min. Nitrocefin solution was then dispensed as substrate into each well at a final concentration of 100 μM, and the plates were immediately read with the kinetic program at 486 nm for 10 min on the SPECTRAMAX® Plus^384 (high-throughput microplate spectrophotometer; Molecular Devices Corp., Sunnyvale, Calif.). Maximum rates of metabolism were then compared to those in control wells (without inhibitors), and percentages of enzyme inhibition were calculated for each concentration of inhibitor. The concentration of inhibitor needed to reduce the initial rate of hydrolysis of substrate by 50% (IC50) was calculated as the residual activity of β-lactamase at 486 nm using the SoftMax Pro 5.0 software (Molecular Devices Corp.).

Test [2] has as its system K. pneumoniae expressing the Class A ESBL CTX-M-15. Nature of the test: microbe, parasite or virus in culture. Format: cell-based. Particulars: in the presence of fixed 8 μg/mL Ceftazidime.
Excerpt: as §1, with “An overlay of CAMHB containing a cephalosporin was added to the compounds at a final static concentration of 8 μg/ml.” left out

Another test concerns the target T2, Class A ESBL SHV-5 (Klebsiella pneumoniae, UniProt P0A3M1).
T2 construct: made in house; host or cells: E. coli BL21(DE3) for purified enzyme; E. coli cells containing SHV-5 for extracts
Format: biochemical, E. coli. Particulars: nitrocefin 100 μM, PBS pH 7.0, read-out: SHV-5 IC50 Range. The procedure:
as §2
For the preparation of SHV-5 extracts, E. coli cells containing SHV-5 were cultured overnight with shaking at a volume of 20 mL. They were further diluted 10-fold and grown to mid-log phase (OD at 600 nm, 0.5-0.8) in Mueller-Hinton II (MH-II) broth at 37° C. The cells were pelleted at 5000 g, washed and resuspended in 2 mL PBS pH 7.0. The β-lactamase was extracted by four cycles of freezing and thawing followed by centrifugation. β-lactamase activity in the extract was measured with the chromogenic cephalosporin nitrocefin. The amount of protein in each β-lactamase preparation was determined by the bicinchoninic acid (BCA) assay.
as §3, §4

For a further test, the target named is T3, Class C P99 AmpC (Enterobacter cloacae, UniProt P05364).
T3 construct: made in house; host or cells: E. coli BL21(DE3)
T3 sequence (P05364 21-381): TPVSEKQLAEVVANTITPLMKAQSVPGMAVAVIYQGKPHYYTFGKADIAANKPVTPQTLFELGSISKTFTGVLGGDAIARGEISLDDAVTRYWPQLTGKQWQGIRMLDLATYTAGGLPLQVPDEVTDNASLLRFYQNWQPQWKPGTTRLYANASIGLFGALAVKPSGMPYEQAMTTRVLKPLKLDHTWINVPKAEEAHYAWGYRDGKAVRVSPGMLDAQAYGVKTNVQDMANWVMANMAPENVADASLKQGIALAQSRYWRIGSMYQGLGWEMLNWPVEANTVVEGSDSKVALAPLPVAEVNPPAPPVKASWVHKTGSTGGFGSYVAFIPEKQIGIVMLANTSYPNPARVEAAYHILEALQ
Format: biochemical. Particulars: purified enzyme; nitrocefin 100 μM, PBS pH 7.0; read-out: P99 AmpC IC50 Range. The procedure:
as §2, §3, §4

Test [3] concerns the target T4, Class A carbapenemase KPC-2 (Klebsiella pneumoniae, UniProt Q9F663).
T4 construct: made in house; host or cells: E. coli BL21(DE3)
Nature of the test: β-lactamase enzyme inhibition (nitrocefin hydrolysis), KPC-2. Format: biochemical. Particulars: purified enzyme; nitrocefin 100 μM, PBS pH 7.0; read-out: KPC-2 IC50 Range. The procedure: as §2, §3, §4

Setting [4] is: cellular extracts of E. coli containing SHV-5 (Examples 2-30).
Setting [5] is: purified beta-lactamase enzyme (Examples 1 and 31-64).

Where two headings read alike, the source gives them in different places.

T4 sequence (Q9F663 25-293 limits assumed): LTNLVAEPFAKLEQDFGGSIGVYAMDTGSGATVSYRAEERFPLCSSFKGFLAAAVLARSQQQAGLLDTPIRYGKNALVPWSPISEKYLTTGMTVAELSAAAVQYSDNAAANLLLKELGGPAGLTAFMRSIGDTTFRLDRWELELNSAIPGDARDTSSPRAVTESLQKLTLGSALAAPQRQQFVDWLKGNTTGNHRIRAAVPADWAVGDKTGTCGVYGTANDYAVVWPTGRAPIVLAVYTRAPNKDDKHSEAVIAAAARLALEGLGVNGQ
T2 sequence (P0A3M1 22-286): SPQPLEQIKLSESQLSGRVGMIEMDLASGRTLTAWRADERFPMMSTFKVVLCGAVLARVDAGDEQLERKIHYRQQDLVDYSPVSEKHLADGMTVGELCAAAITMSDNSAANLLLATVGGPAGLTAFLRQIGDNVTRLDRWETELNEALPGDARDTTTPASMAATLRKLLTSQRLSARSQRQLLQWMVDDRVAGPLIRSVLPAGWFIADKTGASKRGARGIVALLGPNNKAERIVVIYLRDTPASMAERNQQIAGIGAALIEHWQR

By IC50 is commonly meant the concentration at which inhibition is half-maximal. Consider `O=C(N[C@@H](Cc1cccc(C(=O)O)c1O)B(O)O)c1cccc(O)c1` [Example 28, (1R)-1-(3-hydroxybenzoylamino)-2-(2-hydroxy-3-carboxyphenyl)ethyl-1-boronic acid], for which the “MIC of example compound, K. pneumoniae KPC-2 + 8 μg/mL CAZ” value (“MIC … K. pneumoniae KPC-2 + 8 μg/mL CAZ” for short) in test [1] was “C (C represents an MIC of <1 μg/mL)”. The half-maximal inhibitory concentration (IC50) is less than 10 nM on Class A ESBL CTXM-15, 10 to 100 nM at Class A ESBL SHV-5 (setting [4]), less than 10 nM at Class C P99 AmpC and 10 to 100 nM in test [3]. Also, the “MIC of example compound, K. pneumoniae CTX-M-15 + 8 μg/mL CAZ” value (from here on “MIC … K. pneumoniae CTX-M-15 + 8 μg/mL CAZ”) in test [2] is “C (C represents an MIC of <1 μg/mL)”.

As to `O=C(Cc1ccccn1)N[C@@H](Cc1cccc(C(=O)O)c1O)B(O)O.O=CO` [Example 61, (1R)-1-(2-Pyridylacetylamino)-2-(2-hydroxy-3-carboxyphenyl)ethyl-1-boronic acid formate salt], the “MIC … K. pneumoniae KPC-2 + 8 μg/mL CAZ” value in test [1] was “C (C represents an MIC of <1 μg/mL)”. Further, the half-inhibitory concentration (IC50) at Class A ESBL CTXM-15 was less than 10 nM; on Class A ESBL SHV-5 (setting [5]), less than 10 nM; on Class C P99 AmpC, less than 10 nM; in test [3], 10 to 100 nM. In addition, the “MIC … K. pneumoniae CTX-M-15 + 8 μg/mL CAZ” value in test [2] is recorded as “C (C represents an MIC of <1 μg/mL)”.

With `O=C(COCc1ccccc1)N[C@@H](Cc1cccc(C(=O)O)c1O)B(O)O` [Example 22, (1R)-1-(2-benzyloxyacetylamino)-2-(2-hydroxy-3-carboxyphenyl)ethyl-1-boronic acid], the “MIC … K. pneumoniae KPC-2 + 8 μg/mL CAZ” value in test [1] is listed as “C (C represents an MIC of <1 μg/mL)”. Moreover, the 50% inhibitory concentration (IC50) is less than 10 nM on Class A ESBL CTXM-15, less than 10 nM on Class A ESBL SHV-5 (setting [4]), 10 to 100 nM at Class C P99 AmpC and less than 10 nM in test [3]. In addition, the “MIC … K. pneumoniae CTX-M-15 + 8 μg/mL CAZ” value in test [2] is reported as “C (C represents an MIC of <1 μg/mL)”.

Regarding `CCCCCCC(=O)N[C@@H](Cc1cccc(C(=O)O)c1O)B(O)O` [Example 24, (1R)-1-(heptanoylamino)-2-(2-hydroxy-3-carboxyphenyl)ethyl-1-boronic acid], in test [1], the “MIC … K. pneumoniae KPC-2 + 8 μg/mL CAZ” value is given as “C (C represents an MIC of <1 μg/mL)”. Moreover, the IC50 at Class A ESBL CTXM-15 is less than 10 nM; at Class A ESBL SHV-5 (setting [4]), less than 10 nM; on Class C P99 AmpC, less than 10 nM; in test [3], 10 to 100 nM. For the same compound, in test [2], the “MIC … K. pneumoniae CTX-M-15 + 8 μg/mL CAZ” value was “C (C represents an MIC of <1 μg/mL)”.

Take `O=C(N[C@@H](Cc1cccc(C(=O)O)c1O)B(O)O)c1cncnc1` [Example 60, (1R)-1-(Pyrimidine-5-carbonyl-amino)-2-(2-hydroxyl-3-carboxyphenyl)ethyl-1-boronic acid]: the “MIC … K. pneumoniae KPC-2 + 8 μg/mL CAZ” value in test [1] is recorded as “C (C represents an MIC of <1 μg/mL)”. Further, the IC50 is 10 to 100 nM at Class A ESBL CTXM-15, 10 to 100 nM at Class A ESBL SHV-5 (setting [5]), less than 10 nM at Class C P99 AmpC and less than 10 nM in test [3]. Also, in test [2], the “MIC … K. pneumoniae CTX-M-15 + 8 μg/mL CAZ” value is on record as “C (C represents an MIC of <1 μg/mL)”.

As to `O=C(N[C@@H](Cc1cccc(C(=O)O)c1O)B(O)O)c1cccnc1` [Example 51, (1R)-1-(Nicotinoylamino)-2-(2-hydroxy-3-carboxyphenyl)ethyl-1-boronic acid], the “MIC … K. pneumoniae KPC-2 + 8 μg/mL CAZ” value in test [1] is reported as “C (C represents an MIC of <1 μg/mL)”. The half-maximal inhibitory concentration (IC50) is less than 10 nM on Class A ESBL CTXM-15, 10 to 100 nM on Class A ESBL SHV-5 (setting [5]), less than 10 nM at Class C P99 AmpC and less than 10 nM in test [3]. In addition, the “MIC … K. pneumoniae CTX-M-15 + 8 μg/mL CAZ” value in test [2] is listed as “C (C represents an MIC of <1 μg/mL)”.

Turning to `O=C(N[C@@H](Cc1cccc(C(=O)O)c1O)B(O)O)c1ccc(Cl)nc1` [Example 31, (1R)-1-(6-Chloro-pyridine-3-carbonyl)-amino-1-(3-carboxy-2-hydroxy)benzyl-methylboronic acid], the “MIC … K. pneumoniae KPC-2 + 8 μg/mL CAZ” value in test [1] was “C (C represents an MIC of <1 μg/mL)”. Also, the IC50 (on Class A ESBL CTXM-15; at Class A ESBL SHV-5 (setting [5]); on Class C P99 AmpC; in test [3]) was less than 10 nM each time. Besides, the “MIC … K. pneumoniae CTX-M-15 + 8 μg/mL CAZ” value in test [2] is reported as “C (C represents an MIC of <1 μg/mL)”.

Regarding `O=C(CNC(=O)c1ccccc1)N[C@@H](Cc1cccc(C(=O)O)c1O)B(O)O` [Example 50, (1R)-1-(Hippuric amido)-2-(2-hydroxy-3-carboxyphenyl)ethyl-1-boronic acid], the “MIC … K. pneumoniae KPC-2 + 8 μg/mL CAZ” value in test [1] was “C (C represents an MIC of <1 μg/mL)”. Further, the half-inhibitory concentration (IC50) (on Class A ESBL CTXM-15; on Class A ESBL SHV-5 (setting [5]); on Class C P99 AmpC; in test [3]) was less than 10 nM in each case. In test [2], the “MIC … K. pneumoniae CTX-M-15 + 8 μg/mL CAZ” value is “C (C represents an MIC of <1 μg/mL)”.
